Ratio data for 27 compounds are collected here from ChEMBL document CHEMBL3880422, “C-terminal modified oxamyl dipeptides as inhibitors of the ICE/ced-3 family of cysteine proteases” (2007).

The structures appear in SMILES notation. Where a SMILES comes first, the peptide text is derived from it. The star is where a group is joined. Cbz = O=C(OCc1ccccc1)*; CH2F = FC*

Test [1] addresses T1, Caspase-1 (Mus musculus) (UniProt P29452).
T1 sequence (whole entry): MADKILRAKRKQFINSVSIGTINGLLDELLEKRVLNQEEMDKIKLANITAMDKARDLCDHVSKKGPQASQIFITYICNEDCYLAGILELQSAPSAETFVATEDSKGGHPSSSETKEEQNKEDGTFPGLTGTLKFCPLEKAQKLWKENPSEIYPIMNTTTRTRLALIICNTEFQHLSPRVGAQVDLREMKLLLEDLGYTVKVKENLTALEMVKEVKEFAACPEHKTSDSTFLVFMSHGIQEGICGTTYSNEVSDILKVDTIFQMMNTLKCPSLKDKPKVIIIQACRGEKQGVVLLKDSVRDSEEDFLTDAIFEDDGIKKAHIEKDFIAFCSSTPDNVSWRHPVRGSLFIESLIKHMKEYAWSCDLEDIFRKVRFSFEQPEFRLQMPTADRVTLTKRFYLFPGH
Kind of test: Inhibition of mouse recombinant ICE assessed as ratio of irreversible rate constant K3 to dissociation constant of the reversible binding step Ki pre-incubated for 60 mins with Acetyl-Tyr-Val-Ala-Asp-amino-4-methylcoumarin substrate followed by enzyme addition by fluorescence based assay.

In test [2] the target is Caspase-8 (Homo sapiens) (UniProt Q14790). Kind of test: Inhibition of recombinant MCH5 (unknown origin) assessed as ratio of irreversible rate constant K3 to dissociation constant of the reversible binding step Ki pre-incubated for 60 mins with Acetyl-Tyr-Val-Ala-Asp-amino-4-methylcoumarin substrate followed by enzyme addition by fluorescence based assay.
Sequence of Caspase-8 (Homo sapiens) (Q14790 217-374 limits assumed): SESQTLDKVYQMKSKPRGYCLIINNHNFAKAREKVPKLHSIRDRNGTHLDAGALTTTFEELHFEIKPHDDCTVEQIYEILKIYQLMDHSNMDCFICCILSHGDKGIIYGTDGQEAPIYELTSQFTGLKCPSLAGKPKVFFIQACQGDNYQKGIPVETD
Sequence of Caspase-8 (Homo sapiens) (Q14790 385-479 limits assumed): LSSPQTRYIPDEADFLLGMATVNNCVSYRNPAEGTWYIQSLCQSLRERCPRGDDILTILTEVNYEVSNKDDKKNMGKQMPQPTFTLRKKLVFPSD
The target in test [3] is T2, Caspase-3 (Homo sapiens) (UniProt P42574).
T2 sequence (whole entry): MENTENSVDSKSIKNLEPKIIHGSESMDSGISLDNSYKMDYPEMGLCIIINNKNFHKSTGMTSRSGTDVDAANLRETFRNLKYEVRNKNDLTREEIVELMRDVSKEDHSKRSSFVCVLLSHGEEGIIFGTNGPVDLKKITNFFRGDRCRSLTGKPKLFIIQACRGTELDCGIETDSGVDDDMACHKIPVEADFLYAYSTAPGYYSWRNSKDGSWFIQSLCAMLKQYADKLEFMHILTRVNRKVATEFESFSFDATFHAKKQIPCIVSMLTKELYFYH
Kind of test: Inhibition of recombinant CPP32 (unknown origin) assessed as ratio of irreversible rate constant K3 to dissociation constant of the reversible binding step Ki pre-incubated for 60 mins with Acetyl-Tyr-Val-Ala-Asp-amino-4-methylcoumarin substrate followed by enzyme addition by fluorescence based assay.

In test [4] the target is T3, Caspase-6 (Homo sapiens) (UniProt P55212).
T3 sequence (whole entry): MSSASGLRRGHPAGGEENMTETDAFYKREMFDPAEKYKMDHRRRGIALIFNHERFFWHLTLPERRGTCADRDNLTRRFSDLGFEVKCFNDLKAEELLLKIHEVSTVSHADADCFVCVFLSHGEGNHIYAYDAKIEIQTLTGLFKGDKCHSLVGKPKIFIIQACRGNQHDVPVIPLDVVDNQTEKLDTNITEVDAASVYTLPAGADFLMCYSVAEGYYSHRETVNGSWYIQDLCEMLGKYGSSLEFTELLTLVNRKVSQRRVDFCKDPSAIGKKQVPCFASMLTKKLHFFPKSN
Kind of test: Inhibition of recombinant MCH2 (unknown origin) assessed as ratio of irreversible rate constant K3 to dissociation constant of the reversible binding step Ki pre-incubated for 60 mins with Acetyl-Tyr-Val-Ala-Asp-amino-4-methylcoumarin substrate followed by enzyme addition by fluorescence based assay.

Take `C[C@H](NC(=O)C(=O)Nc1cc(C(C)(C)C)ccc1C(C)(C)C)C(=O)N[C@@H](CC(=O)O)C(=O)COP(=O)(c1ccccc1)c1ccccc1`: the Ratio in test [1] amounted to 211000 M⁻¹ s⁻¹; in test [2] it was 1.34e+06 M⁻¹ s⁻¹; in test [3] it was 104000 M⁻¹ s⁻¹; in test [4], 308000 M⁻¹ s⁻¹.
In the case of `C[C@H](NC(=O)C(=O)Nc1ccccc1C(C)(C)C)C(=O)N[C@@H](CC(=O)O)C(=O)COC(=O)c1c(Cl)cccc1Cl`, the Ratio lay within 43300 to 537000 M⁻¹ s⁻¹ in test [1], 30200 to 39100 M⁻¹ s⁻¹ in test [2], 62900 to 142000 M⁻¹ s⁻¹ in test [3] and 6960 to 191000 M⁻¹ s⁻¹ in test [4].
For `CC(C)[C@H](NC(=O)C(=O)Nc1ccccc1)C(=O)N[C@@H](CC(=O)O)C(=O)COc1c(F)c(F)cc(F)c1F` the same measures were 1.49e+06 M⁻¹ s⁻¹, 598000 M⁻¹ s⁻¹, 36000 M⁻¹ s⁻¹ and 25500 M⁻¹ s⁻¹.
The like results for `C[C@H](NC(=O)C(=O)Nc1ccccc1I)C(=O)N[C@@H](CC(=O)O)C(=O)COP(=O)(c1ccccc1)c1ccccc1` were, in that order, 36300 M⁻¹ s⁻¹, 46300 M⁻¹ s⁻¹, 78300 M⁻¹ s⁻¹ and 66200 M⁻¹ s⁻¹.
For `C[C@H](NC(=O)C(=O)NCc1ccccc1)C(=O)N[C@@H](CC(=O)O)C(=O)COC(=O)c1c(Cl)cccc1Cl`, the Ratio came out at 59100 M⁻¹ s⁻¹ in test [1], 203000 M⁻¹ s⁻¹ in test [2], 600000 M⁻¹ s⁻¹ in test [3] and 244000 M⁻¹ s⁻¹ in test [4].
The like results for `C[C@H](NC(=O)C(=O)Nc1ccc(F)cc1)C(=O)N[C@@H](CC(=O)O)C(=O)COC(=O)c1c(Cl)cccc1Cl` were, in that order, 11700 M⁻¹ s⁻¹, 18700 M⁻¹ s⁻¹, 22700 M⁻¹ s⁻¹ and 18600 M⁻¹ s⁻¹.
Turning to `C[C@H](NC(=O)C(=O)Nc1ccccc1I)C(=O)N[C@@H](CC(=O)O)C(=O)COC(=O)c1c(Cl)cccc1Cl`, the Ratio in test [1] fell in the range of 90100 to 1.27e+06 M⁻¹ s⁻¹; in test [2] it was 337000 to 551000 M⁻¹ s⁻¹; in test [3], 67600 to 942000 M⁻¹ s⁻¹; in test [4], 28200 to 360000 M⁻¹ s⁻¹.
In the case of `C[C@H](NC(=O)C(=O)NCc1cccc2ccccc12)C(=O)N[C@@H](CC(=O)O)C(=O)COc1c(F)c(F)cc(F)c1F`, the Ratio turned out to be 2.59e+06 M⁻¹ s⁻¹ in test [1], 1.26e+06 M⁻¹ s⁻¹ in test [2], 158000 M⁻¹ s⁻¹ in test [3] and 335000 M⁻¹ s⁻¹ in test [4].
For `CC(C)[C@H](NC(=O)C(=O)Nc1ccccn1)C(=O)N[C@@H](CC(=O)O)C(=O)COc1c(F)c(F)cc(F)c1F`, the Ratio in test [1] is 36000 M⁻¹ s⁻¹; in test [2], 19500 M⁻¹ s⁻¹; in test [3], 9850 M⁻¹ s⁻¹; in test [4], 11600 M⁻¹ s⁻¹.
`C[C@H](NC(=O)C(=O)NC1CCCCC1)C(=O)N[C@@H](CC(=O)O)C(=O)COP(=O)(c1ccccc1)c1ccccc1`: the Ratio turned out to be 2.03e+06 M⁻¹ s⁻¹ in test [1], 1.79e+06 M⁻¹ s⁻¹ in test [2], 137000 M⁻¹ s⁻¹ in test [3] and 97500 M⁻¹ s⁻¹ in test [4].
For `CC(C)[C@H](NC(=O)C(=O)Nc1ccccc1C(F)(F)F)C(=O)N[C@@H](CC(=O)O)C(=O)COc1c(F)c(F)cc(F)c1F`, the Ratio in test [1] is 1.04e+06 M⁻¹ s⁻¹; in test [2], 41000 M⁻¹ s⁻¹; in test [3], 57400 M⁻¹ s⁻¹; in test [4], 261000 M⁻¹ s⁻¹.
Take `C[C@H](NC(=O)C(=O)Nc1cc(C(F)(F)F)ccc1N1CCOCC1)C(=O)N[C@@H](CC(=O)O)C(=O)COP(=O)(c1ccccc1)c1ccccc1`: the Ratio in test [1] came to 369000 M⁻¹ s⁻¹; in test [2] it was 441000 M⁻¹ s⁻¹; in test [3], 100000 M⁻¹ s⁻¹; in test [4], 98500 M⁻¹ s⁻¹.
`C[C@H](NC(=O)C(=O)Nc1cccc2c1CCCC2)C(=O)N[C@@H](CC(=O)O)C(=O)COc1c(F)c(F)cc(F)c1F`: the Ratio came to 22000 M⁻¹ s⁻¹ in test [1], 46200 M⁻¹ s⁻¹ in test [2], 118000 M⁻¹ s⁻¹ in test [3] and 64100 M⁻¹ s⁻¹ in test [4].
Turning to `CC(C)[C@H](NC(=O)C(=O)Nc1cccc2ccccc12)C(=O)N[C@@H](CC(=O)O)C(=O)COc1c(F)cc(F)cc1F`, the Ratio in test [1] was 879000 M⁻¹ s⁻¹; in test [4] it was 37400 M⁻¹ s⁻¹.
Turning to `CC(C)[C@H](NC(=O)C(=O)Nc1nc2ccccc2[nH]1)C(=O)N[C@@H](CC(=O)O)C(=O)COc1c(F)c(F)cc(F)c1F`, the Ratio in test [1] came to 27400 M⁻¹ s⁻¹; in test [2] it was 20800 M⁻¹ s⁻¹; in test [3], 3130 M⁻¹ s⁻¹; in test [4] it was 1840 M⁻¹ s⁻¹.
For `C[C@H](NC(=O)C(=O)Nc1ccccc1F)C(=O)N[C@@H](CC(=O)O)C(=O)COc1c(F)c(F)cc(F)c1F`, the Ratio in test [1] was found to be 339000 M⁻¹ s⁻¹; in test [2], 170000 M⁻¹ s⁻¹; in test [3], 478000 M⁻¹ s⁻¹; in test [4] it was 212000 M⁻¹ s⁻¹.
As to `C[C@H](NC(=O)C(=O)Nc1ccccc1Cl)C(=O)N[C@@H](CC(=O)O)C(=O)COP(=O)(c1ccccc1)c1ccccc1`, the Ratio in test [1] is 103000 to 1.98e+06 M⁻¹ s⁻¹; in test [2], 179000 to 2.33e+06 M⁻¹ s⁻¹; in test [3], 162000 to 564000 M⁻¹ s⁻¹; in test [4], 247000 to 373000 M⁻¹ s⁻¹.
In the case of `CC(C)[C@H](NC(=O)OCc1ccccc1)C(=O)N[C@@H](C)C(=O)N[C@@H](CC(=O)O)C(=O)CF` (Cbz-Val-Ala-Asp-CH2F), the Ratio in test [1] was found to be 214000 M⁻¹ s⁻¹; in test [2], 83300 M⁻¹ s⁻¹; in test [3] it was 12200 M⁻¹ s⁻¹; in test [4] it was 2950 M⁻¹ s⁻¹.
As for `C[C@H](NC(=O)C(=O)NC1CCCCC1)C(=O)N[C@@H](CC(=O)O)C(=O)COC(=O)c1c(Cl)cccc1Cl`, the Ratio turned out to be 2.02e+06 M⁻¹ s⁻¹ in test [1], 2.14e+06 M⁻¹ s⁻¹ in test [2], 1.17e+06 M⁻¹ s⁻¹ in test [3] and 655000 M⁻¹ s⁻¹ in test [4].
The like results for `C[C@H](NC(=O)C(=O)Nc1cccc2c1CCCC2)C(=O)N[C@@H](CC(=O)O)C(=O)COC(=O)c1c(Cl)cccc1Cl` were, in that order, 16900 to 1.76e+07 M⁻¹ s⁻¹, 21200 to 1.92e+06 M⁻¹ s⁻¹, 149000 to 260000 M⁻¹ s⁻¹ and 126000 to 264000 M⁻¹ s⁻¹.
For `C[C@H](NC(=O)C(=O)NCc1ccccc1)C(=O)N[C@@H](CC(=O)O)C(=O)COc1c(F)c(F)cc(F)c1F`, the Ratio was 13900 M⁻¹ s⁻¹ in test [1], 23100 M⁻¹ s⁻¹ in test [2], 54300 M⁻¹ s⁻¹ in test [3] and 42800 M⁻¹ s⁻¹ in test [4].
For `C[C@H](NC(=O)C(=O)Nc1ccc(F)cc1)C(=O)N[C@@H](CC(=O)O)C(=O)COP(=O)(c1ccccc1)c1ccccc1` the same measures were 956000 M⁻¹ s⁻¹, 2.3e+06 M⁻¹ s⁻¹, 268000 M⁻¹ s⁻¹ and 424000 M⁻¹ s⁻¹.
The like results for `CC(C)[C@H](NC(=O)C(=O)Nc1cccc2ccccc12)C(=O)N[C@@H](CC(=O)O)C(=O)COc1cccc2ccccc12` were, in that order, 254000 M⁻¹ s⁻¹, 177000 M⁻¹ s⁻¹, 180000 M⁻¹ s⁻¹ and 83700 M⁻¹ s⁻¹.
With `CC(C)[C@H](NC(=O)C(=O)Nc1ccccc1Cl)C(=O)N[C@@H](CC(=O)O)C(=O)COc1c(F)c(F)cc(F)c1F`, the Ratio in test [1] turned out to be 1.54e+06 M⁻¹ s⁻¹; in test [2] it was 234000 M⁻¹ s⁻¹; in test [3], 96300 M⁻¹ s⁻¹; in test [4], 161000 M⁻¹ s⁻¹.
For `CCCCCCCc1ccc(NC(=O)C(=O)N[C@H](C(=O)N[C@@H](CC(=O)O)C(=O)COc2c(F)c(F)cc(F)c2F)C(C)C)cc1`, the Ratio came out at 657000 M⁻¹ s⁻¹ in test [1], 155000 M⁻¹ s⁻¹ in test [2], 11200 M⁻¹ s⁻¹ in test [3] and 50000 M⁻¹ s⁻¹ in test [4].
On to `CC(C)[C@H](NC(=O)C(=O)Nc1cnccn1)C(=O)N[C@@H](CC(=O)O)C(=O)COc1c(F)c(F)cc(F)c1F`, for which the figures for the Ratio in test [1], in test [2] and in test [4] were 2.57e+06 M⁻¹ s⁻¹, 1.83e+06 M⁻¹ s⁻¹ and 175000 M⁻¹ s⁻¹, respectively.
On to `CC(C)[C@H](NC(=O)C(=O)Nc1cccc2ccccc12)C(=O)N[C@@H](CC(=O)O)C(=O)COC(=O)c1c(Cl)cccc1Cl`, for which the Ratio in test [1] was found to be 1.05e+06 M⁻¹ s⁻¹; in test [4], 234000 M⁻¹ s⁻¹.
